{"source": "ChEMBL document CHEMBL6103618", "about": "“Discovery of Novel Oxazolo[4,3-f]purine Derivatives as Antitumor Agents through PPIA Interaction” (J Med Chem, 2025)", "key": {"HCT-116 [1]": {"system": "HCT-116", "assay": "Induction of apoptosis in human HCT-116 cells at 1.2 uM in presence of NAC by Annexin V-FITC/PI staining based flow cytometry", "format": "functional, cell-based"}, "HeLa": {"system": "HeLa", "assay": "Antiproliferative activity against human HeLa cells assessed as inhibition of cell viability incubated for 48 hrs by CCK8 assay", "format": "functional, cell-based"}, "PANC-1": {"system": "PANC-1", "assay": "Antiproliferative activity against human PANC-1 cells assessed as inhibition of cell viability incubated for 48 hrs by CCK8 assay", "format": "functional, cell-based", "settings": "PANC-1, 48 h"}, "HepG2": {"system": "HepG2", "assay": "Antiproliferative activity against human HepG2 cells assessed as inhibition of cell viability incubated for 48 hrs by CCK8 assay", "format": "functional, cell-based", "settings": "HepG2, 48 h"}, "HCT-116 [2]": {"system": "HCT-116", "assay": "Anti-invasion activity in human HCT-116 cells incubated for 24 hrs by transwell assay", "format": "functional, cell-based", "settings": "dose 0.3-1.2 µM"}, "HCT-116 [3]": {"system": "HCT-116", "assay": "Induction of cell cycle arrest in human HCT-116 cells assessed as accumulation at G1 phase at 0.3 uM incubated for 48 hrs by PI staining based flow cytometry (reference value: 59.37 %)", "format": "functional"}, "HCT-116 [4]": {"system": "HCT-116", "assay": "Induction of cell cycle arrest in human HCT-116 cells assessed as accumulation at G2 phase at 0.3 uM incubated for 48 hrs by PI staining based flow cytometry (reference value: 6.08 %)", "format": "functional"}, "HCT-116 [5]": {"system": "HCT-116", "assay": "Induction of cell cycle arrest in human HCT-116 cells assessed as accumulation at S phase at 0.6 uM incubated for 48 hrs by PI staining based flow cytometry (reference value: 34.55 %)", "format": "functional"}, "HCT-116 [6]": {"system": "HCT-116", "assay": "Induction of cell cycle arrest in human HCT-116 cells assessed as accumulation at G2 phase at 1.2 uM incubated for 48 hrs by PI staining based flow cytometry (reference value: 6.08 %)", "format": "functional"}, "HCT-116 [7]": {"system": "HCT-116", "assay": "Induction of apoptosis in human HCT-116 cells assessed as viable cells at 0.3 uM incubated for 48 hrs by Annexin V-FITC/PI staining based flow cytometry (reference value: 96.2 %)", "format": "functional", "settings": "read-out: Activity"}, "HCT-116 [8]": {"system": "HCT-116", "assay": "Induction of apoptosis in human HCT-116 cells assessed as early apoptotic cells at 0.3 uM incubated for 48 hrs by Annexin V-FITC/PI staining based flow cytometry (reference value: 1.12 %)", "format": "functional"}, "HCT-116 [9]": {"system": "HCT-116", "assay": "Induction of apoptosis in human HCT-116 cells assessed as late apoptotic cells at 0.3 uM incubated for 48 hrs by Annexin V-FITC/PI staining based flow cytometry (reference value: 1.55 %)", "format": "functional"}, "HCT-116 [10]": {"system": "HCT-116", "assay": "Induction of apoptosis in human HCT-116 cells assessed as early apoptotic cells at 0.6 uM incubated for 48 hrs by Annexin V-FITC/PI staining based flow cytometry (reference value: 1.12 %)", "format": "functional"}, "HCT-116 [11]": {"system": "HCT-116", "assay": "Induction of apoptosis in human HCT-116 cells assessed as necrotic cells at 1.2 uM incubated for 48 hrs by Annexin V-FITC/PI staining based flow cytometry (reference value: 1.15 %)", "format": "functional"}, "HCT-116 [12]": {"system": "HCT-116", "assay": "Induction of cell cycle arrest in human HCT-116 cells assessed as decrease in CDK4 level incubated for 48 hrs by Western blot analysis", "format": "functional, cell-based", "settings": "dose 0.3-1.2 µM"}, "HCT-116 [13]": {"system": "HCT-116", "assay": "Induction of apoptosis in human HCT-116 cells assessed as increase in Bax level at 0.3 to 1.2 uM incubated for 48 hrs by Western blot analysis", "format": "functional, cell-based", "settings": "dose 0.3-1.2 µM"}, "HCT-116 [14]": {"system": "HCT-116", "assay": "Induction of intracellular ROS generation in human HCT-116 cells at 1.2 uM in presence of NAC by flow cytometry", "format": "functional, cell-based"}, "HCT-116 [15]": {"system": "HCT-116", "assay": "Induction of DNA damage in human HCT-116 cells assessed as increase in orange fluorescence incubated for 48 hrs by AO staining based analysis", "format": "functional, cell-based", "settings": "dose 0.3-1.2 µM"}, "HCT-116 [16]": {"system": "HCT-116", "assay": "Induction of apoptosis in human HCT-116 cells assessed as decrease in Bcl-2 level at 1.2 uM in presence of NAC by Western blot analysis", "format": "functional, cell-based"}, "HCT-116 [17]": {"system": "HCT-116", "assay": "Induction of ER stress in human HCT-116 cells assessed as increase in PERK level at 0.3 to 1.2 uM by Western blot analysis", "format": "functional, cell-based", "settings": "dose 0.3-1.2 µM"}, "HCT-116 [18]": {"system": "HCT-116", "assay": "Induction of ER stress in human HCT-116 cells assessed as increase in CHOP level at 0.3 to 1.2 uM by Western blot analysis", "format": "functional, cell-based", "settings": "dose 0.3-1.2 µM"}, "HCT-116 [19]": {"system": "HCT-116", "assay": "Induction of mitochondrial dysfunction in human HCT-116 cells at 0.3 to 1.2 uM by JC-1 dye based analysis", "format": "functional, cell-based", "settings": "dose 0.3-1.2 µM"}, "HCT-116 [20]": {"system": "HCT-116", "assay": "Induction of mitochondrial dysfunction in human HCT-116 cells at 1.2 uM in presence of NAC by JC-1 dye based analysis", "format": "functional, cell-based"}, "[21]": {"biological_target": "T1, Peptidyl-prolyl cis-trans isomerase A (Homo sapiens, UniProt P62937)", "T1 sequence (P62937 whole entry, looked up)": "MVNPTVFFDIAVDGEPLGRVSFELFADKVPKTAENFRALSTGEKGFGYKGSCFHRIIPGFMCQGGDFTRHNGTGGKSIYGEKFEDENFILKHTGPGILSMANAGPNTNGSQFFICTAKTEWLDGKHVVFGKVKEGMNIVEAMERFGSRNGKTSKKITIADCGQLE", "assay": "Binding affinity to PPIA (unknown origin) at 2 uM preincubated for 30 mins followed by Proteinase K addition measured after 10 mins by LiP-SMap analysis"}, "[22]": {"biological_target": "T1, Peptidyl-prolyl cis-trans isomerase A", "assay": "Binding affinity to PPIA in human HCT-116 cells assessed as protein stability incubated for 30 mins followed by pronase addition measured after 30 mins by DARTS assay", "format": "cell-based", "settings": "dose <= 6.0 µM, time 60.0 min"}, "HCT-116 [23]": {"system": "HCT-116", "assay": "Cytotoxicity against human HCT-116 cells harboring siNC assessed as inhibition of cell viability incubated for 48 hrs by CCK8 assay", "format": "functional, cell-based", "settings": "HCT-116, 48 h"}, "HCT-116 [24]": {"system": "HCT-116", "assay": "Anti-migration activity in human HCT-116 cells harboring siNC at 1.2 uM incubated for 24 hrs by wound healing assay", "format": "functional, cell-based"}, "HCT-116 [25]": {"system": "HCT-116", "assay": "Anti-proliferative activity against human HCT-116 cells harboring siNC assessed as decrease in p-p38 level at 1.2 uM by Western blot analysis", "format": "functional, cell-based"}, "HCT-116 [26]": {"system": "HCT-116", "assay": "Anti-proliferative activity against human HCT-116 cells harboring siNC assessed as decrease in p-ERK1/2 level at 1.2 uM by Western blot analysis", "format": "functional, cell-based"}, "HCT-116 [27]": {"system": "HCT-116", "assay": "Anti-proliferative activity against human HCT-116 cells harboring siPPIA-3 assessed as decrease in p-JNK level at 1.2 uM by Western blot analysis", "format": "functional, cell-based"}, "HCT-116 [28]": {"system": "HCT-116", "assay": "Induction of apoptosis in human HCT-116 cells harboring siNC assessed as early apoptotic cells at 1.2 uM by Annexin V-FITC/PI staining based flow cytometry (reference value: 1.52 %)", "format": "functional"}, "HCT-116 [29]": {"system": "HCT-116", "assay": "Induction of apoptosis in human HCT-116 cells harboring siPPIA-3 assessed as late apoptotic cells at 1.2 uM by Annexin V-FITC/PI staining based flow cytometry (reference value: 3.44 %)", "format": "functional"}, "[30]": {"assay": "Acute toxicity in BALB/c mouse assessed as death rate at 180 mg/kg, ip measured for 14 days", "format": "organism-based", "settings": "both, in vivo, time 14 day, read-out: Activity"}, "[31]": {"assay": "Acute toxicity in BALB/c mouse assessed as death rate at 350 mg/kg, ip measured for 14 days", "format": "organism-based", "settings": "both, in vivo, time 14 day, read-out: Activity"}, "[32]": {"assay": "Toxicity in BALB/c mouse implanted with mouse CT26 cells assessed as change in body weight at 15 to 45 mg/kg, ip qd treated for 14 days", "format": "organism-based", "settings": "in vivo, 336 h, dose 15-45 mg/kg, time 14 day"}, "[33]": {"assay": "Toxicity in BALB/c mouse implanted with mouse CT26 cells assessed as injury in liver at 15 to 45 mg/kg, ip qd treated for 14 days by H and E staining based analysis", "format": "organism-based", "settings": "in vivo, 336 h, dose 15-45 mg/kg, time 14 day"}, "[34]": {"assay": "Toxicity in BALB/c mouse implanted with mouse CT26 cells assessed as abnormality in heart at 15 to 45 mg/kg, ip qd treated for 14 days by H and E staining based analysis", "format": "organism-based", "settings": "in vivo, 336 h, dose 15-45 mg/kg, time 14 day"}}, "note": "The source made the active and inactive calls. No cut-off for these calls is given here."}
{"smiles": "C=C(C(=O)OC)N1c2nc(Cl)nc(Cl)c2N2C(c3ccccc3F)OC(C(=O)OCC)(C(=O)OCC)C12", "note": "(racemic)", "values": [{"measurement": "Activity", "setting": "HCT-116 [1]", "value": "inactive"}, {"measurement": "IC50", "setting": "HeLa", "value": 690, "unit": "nM"}, {"measurement": "IC50", "setting": "PANC-1", "value": 3310, "unit": "nM"}, {"measurement": "IC50", "setting": "HepG2", "value": 2160, "unit": "nM"}, {"measurement": "Activity", "setting": "HCT-116 [2]", "value": "Dose-dependent-effect"}, {"measurement": "Activity", "setting": "HCT-116 [3]", "value": 65.85, "unit": "%"}, {"measurement": "Activity", "setting": "HCT-116 [4]", "value": 6.26, "unit": "%"}, {"measurement": "Activity", "setting": "HCT-116 [5]", "value": 28.97, "unit": "%"}, {"measurement": "Activity", "setting": "HCT-116 [6]", "value": 2.78, "unit": "%"}, {"measurement": "viability at 0.3 µM", "setting": "HCT-116 [7]", "value": 82.9, "unit": "%"}, {"measurement": "Activity", "setting": "HCT-116 [8]", "value": 11.7, "unit": "%"}, {"measurement": "Activity", "setting": "HCT-116 [9]", "value": 3.56, "unit": "%"}, {"measurement": "Activity", "setting": "HCT-116 [10]", "value": 14.8, "unit": "%"}, {"measurement": "Activity", "setting": "HCT-116 [11]", "value": 2.4, "unit": "%"}, {"measurement": "Activity", "setting": "HCT-116 [12]", "value": "Dose-dependent-effect"}, {"measurement": "Activity", "setting": "HCT-116 [13]", "value": "Active"}, {"measurement": "Activity", "setting": "HCT-116 [14]", "value": "inactive"}, {"measurement": "Activity", "setting": "HCT-116 [15]", "value": "Dose-dependent-effect"}, {"measurement": "Activity", "setting": "HCT-116 [16]", "value": "inactive"}, {"measurement": "Activity", "setting": "HCT-116 [17]", "value": "Active"}, {"measurement": "Activity", "setting": "HCT-116 [18]", "value": "Active"}, {"measurement": "Activity", "setting": "HCT-116 [19]", "value": "Active"}, {"measurement": "Activity", "setting": "HCT-116 [20]", "value": "inactive"}, {"measurement": "Activity", "setting": "[21]", "value": "Active"}, {"measurement": "Activity", "setting": "[22]", "value": "Dose-dependent-effect"}, {"measurement": "IC50", "setting": "HCT-116 [23]", "value": 470, "unit": "nM"}, {"measurement": "Activity", "setting": "HCT-116 [24]", "value": "Active"}, {"measurement": "Activity", "setting": "HCT-116 [25]", "value": "Active"}, {"measurement": "Activity", "setting": "HCT-116 [26]", "value": "Active"}, {"measurement": "Activity", "setting": "HCT-116 [27]", "value": "inactive"}, {"measurement": "Activity", "setting": "HCT-116 [28]", "value": 16.8, "unit": "%"}, {"measurement": "Activity", "setting": "HCT-116 [29]", "value": 3.25, "unit": "%"}, {"measurement": "mortality at 336 h", "setting": "[30]", "value": 0, "unit": "%"}, {"measurement": "mortality at 336 h", "setting": "[31]", "value": 20, "unit": "%"}, {"measurement": "Activity", "setting": "[32]", "value": "Non-toxic"}, {"measurement": "Activity", "setting": "[33]", "value": "Non-toxic"}, {"measurement": "Activity", "setting": "[34]", "value": "Non-toxic"}]}
